Assay results published in patent US9067932B2, “Pyrazolopyridine kinase inhibitors” (Vertex Pharmaceuticals Incorporated, priority 2010, dated 2015).
pKi: −log10 of the molar value. Like-named read-outs stand apart in the source and are kept apart here.

Experiments:
Format in all cases: biochemical
PKC theta kinase = PKC theta kinase (Homo sapiens, UniProt Q04759); assay: PKC theta coupled-enzyme (NADH consumption) kinase assay; details: 18 nM PKC theta, 240 μM ATP, 30° C., initial rate at 340 nm
Method: (§1) An assay buffer solution was prepared which consisted of 100 mM HEPES (pH 7.5), 10 mM MgCl2, 25 mM NaCl, 0.1 mM EDTA and 0.01% Brij. […] To 60 μL of this enzyme buffer, in a 384 well plate, was added 2 μL of VRT stock solution in DMSO. […] The enzyme reaction was initiated by the addition of 5 μL stock ATP solution prepared in assay buffer to a final assay concentration of 240 μM. Initial rate data was determined from the rate of change of absorbance at 340 nm (corresponding to stoichiometric consumption of NADH) using a Molecular Devices Spectramax plate reader (Sunnyvale, Calif.) over 15 mins at 30° C. For each Ki determination 12 data points covering the VRT concentration range of 0-20 μM were obtained in duplicate (DMSO stocks were prepared from an initial 10 mM VRT stock with subsequent 1:2 serial dilutions). Ki values were calculated from initial rate data by non-linear regression using the Prism software package (Prism 4.0a, Graphpad Software, San Diego, Calif.).

PKC delta kinase = PKC delta kinase (Homo sapiens, UniProt Q05655); assay: PKC delta coupled-enzyme (NADH consumption) kinase assay; details: 46 nM PKC delta, 150 μM ATP, 30° C., initial rate at 340 nm
Method: as §1, with “To 16” for “To 60”, “added 1” for “added 2”, “of 16” for “of 5”, “of 150” for “of 240”

PKC alpha kinase = PKC alpha kinase (Homo sapiens, UniProt P17252); assay: PKC alpha coupled-enzyme (NADH consumption) kinase assay; details: 4.5 nM PKC alpha, 130 μM ATP, 100 μM CaCl2, 30° C.
Method: An assay buffer solution was prepared which consisted of 100 mM HEPES (pH 7.5), 10 mM MgCl2, 25 mM NaCl, 0.1 mM EDTA, 100 μM CaCl2 and 0.01% Brij. An enzyme buffer containing reagents to final assay concentrations of 0.002% Triton X-100, 100 μg/mL Phosphatidylserine, 20 μg/mL Diacylglycerol, 360 μM NADH, 3 mM phosphoenolpyruvate, 70 μg/mL pyruvate kinase, 24 μg/mL lactate dehydrogenase, 2 mM DTT, 150 μM substrate peptide ([…] SEQ ID NO. 1) and 4.5 nM PKC alpha kinase was prepared in assay buffer. To 16 μL of this enzyme buffer, in a 384 well plate, was added 1 μL of VRT stock solution in DMSO. The mixture was allowed to equilibrate for 10 mins at 30° C. The enzyme reaction was initiated by the addition of 16 μL stock ATP solution prepared in assay buffer to a final assay concentration of 130 μM. Initial rate data was determined from the rate of change of absorbance at 340 nm (corresponding to stoichiometric consumption of NADH) using a Molecular Devices Spectramax plate reader (Sunnyvale, Calif.) over 15 mins at 30° C. For each Ki determination 12 data points covering the VRT concentration range of 0-20 μM were obtained in duplicate (DMSO stocks were prepared from an initial 10 mM VRT stock with subsequent 1:2 serial dilutions). Ki values were calculated from initial rate data by non-linear regression using the Prism software package (Prism 4.0a, Graphpad Software, San Diego, Calif.).

PKC delta kinase, sequence (Q05655 whole entry): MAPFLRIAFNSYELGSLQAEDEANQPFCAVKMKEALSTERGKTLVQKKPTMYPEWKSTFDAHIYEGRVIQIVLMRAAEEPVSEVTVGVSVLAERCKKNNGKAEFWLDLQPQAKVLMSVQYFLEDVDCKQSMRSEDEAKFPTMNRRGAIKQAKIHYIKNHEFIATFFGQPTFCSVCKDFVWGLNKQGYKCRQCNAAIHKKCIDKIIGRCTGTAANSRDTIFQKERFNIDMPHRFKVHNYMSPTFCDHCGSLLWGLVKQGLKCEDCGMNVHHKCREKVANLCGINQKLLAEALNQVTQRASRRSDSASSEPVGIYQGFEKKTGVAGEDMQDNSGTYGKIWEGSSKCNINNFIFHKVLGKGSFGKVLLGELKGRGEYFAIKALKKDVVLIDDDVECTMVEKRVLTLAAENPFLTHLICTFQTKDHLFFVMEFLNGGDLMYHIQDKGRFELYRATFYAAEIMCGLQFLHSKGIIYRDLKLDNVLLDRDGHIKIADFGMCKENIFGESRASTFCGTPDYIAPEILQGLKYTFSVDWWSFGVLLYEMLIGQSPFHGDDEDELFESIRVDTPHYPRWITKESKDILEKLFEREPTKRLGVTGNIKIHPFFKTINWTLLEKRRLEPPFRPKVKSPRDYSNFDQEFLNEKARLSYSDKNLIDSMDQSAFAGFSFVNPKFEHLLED
PKC theta kinase, sequence (Q04759 whole entry): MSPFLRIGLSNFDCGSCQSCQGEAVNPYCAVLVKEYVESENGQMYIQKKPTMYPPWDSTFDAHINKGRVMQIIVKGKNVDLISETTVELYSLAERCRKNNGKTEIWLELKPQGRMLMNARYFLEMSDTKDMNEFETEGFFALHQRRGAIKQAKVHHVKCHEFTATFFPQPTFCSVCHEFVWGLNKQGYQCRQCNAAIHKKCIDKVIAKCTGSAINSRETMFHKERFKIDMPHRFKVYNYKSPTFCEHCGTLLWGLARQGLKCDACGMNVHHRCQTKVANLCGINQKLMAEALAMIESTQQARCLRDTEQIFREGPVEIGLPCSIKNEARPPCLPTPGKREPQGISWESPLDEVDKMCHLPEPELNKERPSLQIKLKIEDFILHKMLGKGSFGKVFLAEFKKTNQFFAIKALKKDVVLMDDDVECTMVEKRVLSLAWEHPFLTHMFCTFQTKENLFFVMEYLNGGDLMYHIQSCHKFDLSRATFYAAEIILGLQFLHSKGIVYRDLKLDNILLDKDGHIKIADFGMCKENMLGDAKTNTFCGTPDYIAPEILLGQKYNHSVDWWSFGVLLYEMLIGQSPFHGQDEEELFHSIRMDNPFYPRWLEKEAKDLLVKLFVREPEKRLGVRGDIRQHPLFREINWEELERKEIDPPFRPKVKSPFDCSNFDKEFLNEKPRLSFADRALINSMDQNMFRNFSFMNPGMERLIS

| Compound | pKi (PKC theta kinase; Ki PKC theta) | pKi (PKC delta kinase) | pKi (PKC alpha kinase; Ki PKC alpha) | pKi (PKC theta kinase; read-out: Ki PKC theta) | pKi (PKC alpha kinase; read-out: Ki PKC alpha) |
| --- | --- | --- | --- | --- | --- |
| CC(C)C(C)(O)C1CN(c2nc(C3N=Nc4ncccc43)c(F)cc2F)CCN1 (stereo not shown) [Compound 3] | > 9.00 | > 6.30 | > 5.55 |  |  |
| COCC(C)(O)C1CN(c2nc(-c3n[nH]c4ncccc34)c(F)cc2F)CCN1 (stereo not shown) [Compound 16] |  | > 6.30 |  | > 7.30 | < 5.90 |
| CC(C)[C@@](C)(O)[C@@H]1CN(c2nc(-c3n[nH]c4ncccc34)c(C#N)cc2F)CCN1 [Compound 43] |  | < 5.90 |  | > 7.30 | < 5.90 |
| CC(C)C(N)[C@H]1CCN(c2nc(-c3n[nH]c4ncccc34)c(F)cc2F)C1 (stereo partly shown) [Compound 28] |  | > 7.30 |  | > 9.00 | > 6.30 |
| CC(C)[C@@](C)(O)C1CN(c2nc(-c3n[nH]c4ncccc34)c(C#N)cc2F)CCN1 (stereo partly shown) [Compound 34] |  | < 5.90 |  | > 7.30 | < 5.90 |
| CC(C)[C@@](C)(O)[C@@H]1CN(c2nc(-c3n[nH]c4ncccc34)c(F)cc2O)CCN1 [Compound 32] |  | > 8.00 |  | > 9.00 | > 6.30 |
| CC(C)(F)C(C)(O)C1CN(c2nc(-c3n[nH]c4ncccc34)c(F)cc2F)CCN1 (stereo not shown) [Compound 11] |  | > 8.00 |  | > 9.00 | > 5.55 |
| CC(C)(C)C(O)C1CN(c2nc(-c3n[nH]c4ncccc34)c(F)cc2Cl)CCN1 (stereo not shown) [Compound 26] |  | > 8.00 |  | > 9.00 | > 6.30 |
| COCC(C)(O)C1CN(c2nc(-c3n[nH]c4ncccc34)c(F)cc2Cl)CCN1 (stereo not shown) [Compound 33] |  | > 6.30 |  | > 7.30 | < 5.90 |
| CC(C)[C@@](C)(O)[C@@H]1CN(c2nc(-c3n[nH]c4ncccc34)c(F)cc2C#N)CCN1 [Compound 10] |  |  |  |  | < 5.90 |
| CC(C)[C@@H](O)[C@@H]1CN(c2nc(-c3n[nH]c4ncccc34)c(F)cc2F)CCN1 [Compound 7] |  | > 7.30 |  | > 9.00 | > 6.30 |
| CC(CO)[C@@](C)(O)[C@@H]1CN(c2nc(-c3n[nH]c4ncccc34)c(F)cc2F)CCN1 (stereo partly shown) [Compound 39] |  | > 6.30 |  | > 7.30 | < 5.90 |
| CC(C)C(N)C1CCN(c2nc(-c3n[nH]c4ncccc34)c(F)cc2F)C1 (stereo not shown) [Compound 22] |  | > 6.30 |  | > 7.30 | > 5.55 |
| CC(C)[C@@](C)(O)[C@@H]1CN(c2nc(-c3n[nH]c4ncccc34)c(F)cc2CO)CCN1 [Compound 44] |  | > 8.00 |  | > 9.00 | > 6.30 |
| OC(C1CC1)C1CN(c2nc(-c3n[nH]c4ncccc34)c(F)cc2Cl)CCN1 (stereo not shown) [Compound 31] |  | > 7.30 |  | > 9.00 | > 5.55 |
| CC(CO)[C@@](C)(O)[C@@H]1CN(c2nc(-c3n[nH]c4ncccc34)c(F)cc2F)CCN1 (stereo partly shown) [Compound 40] |  | > 7.30 |  | > 9.00 | > 6.30 |
| CC(C)[C@@](C)(O)[C@@H]1CN(c2nc(-c3n[nH]c4ncccc34)c(F)cc2F)CCN1 [Compound 1, (R)-2-((S)-4-(3,5-difluoro-6-(1H-pyrazolo[3,4-b]pyridin-3-yl)pyridin-2-yl)piperazin-2-yl)-3-methylbutan-2-ol] | > 9.00 | > 7.30 | > 6.30 |  |  |
| CC(C)C(N)[C@H]1CCN(c2nc(-c3n[nH]c4ncccc34)c(F)cc2Cl)C1 (stereo partly shown) [Compound 24] |  | > 6.30 |  | > 7.30 | < 5.90 |
| CC(C)[C@@](C)(O)C1CN(c2nc(-c3n[nH]c4ncccc34)c(C#N)cc2F)CCN1 (stereo partly shown) [Compound 35] |  |  |  | > 6.30 |  |
| CC(C)[C@](C)(O)[C@@H]1CN(c2nc(-c3n[nH]c4ncccc34)c(F)cc2Cl)CCN1 [Compound 38] |  | > 6.30 |  | > 7.30 | > 5.55 |

| Compound | pKi (PKC theta kinase; Ki PKC theta) | pKi (PKC delta kinase) | pKi (PKC alpha kinase; Ki PKC alpha) | pKi (PKC theta kinase; read-out: Ki PKC theta) | pKi (PKC alpha kinase; read-out: Ki PKC alpha) |
| --- | --- | --- | --- | --- | --- |
| CC(O)(C1CC1)C1CN(c2nc(-c3n[nH]c4ncccc34)c(F)cc2F)CCN1 (stereo not shown) [Compound 4] |  | > 6.30 |  | > 9.00 | < 5.90 |
| CC(C)C(N)[C@H]1CCN(c2nc(-c3n[nH]c4ncccc34)c(F)cc2C#N)C1 (stereo partly shown) [Compound 37] |  | > 6.30 |  | > 7.30 | > 5.55 |
| CC(CO)[C@@](C)(O)[C@@H]1CN(c2nc(-c3n[nH]c4ncccc34)c(F)cc2Cl)CCN1 (stereo partly shown) [Compound 45] |  | < 5.90 |  | > 6.30 | < 5.90 |
| CC(C)(F)C(C)(O)C1CN(c2nc(-c3n[nH]c4ncccc34)c(F)cc2F)CCN1 (stereo not shown) [Compound 12] |  | > 7.30 |  |  | > 6.30 |
| CCC(C)(O)C1CN(c2nc(-c3n[nH]c4ncccc34)c(F)cc2F)CCN1 (stereo not shown) [Compound 6] |  | > 7.30 |  | > 9.00 | > 5.55 |
| CC(O)(CC(F)(F)F)C1CN(c2nc(-c3n[nH]c4ncccc34)c(F)cc2F)CCN1 (stereo not shown) [Compound 15] |  | > 7.30 |  | > 9.00 | > 6.30 |
| CCC(O)C1CN(c2nc(-c3n[nH]c4ncccc34)c(F)cc2Cl)CCN1 (stereo not shown) [Compound 19] |  | > 7.30 |  | > 9.00 | > 5.55 |
| CC(O)(C1CN(c2nc(-c3n[nH]c4ncccc34)c(F)cc2F)CCN1)C(F)(F)F (stereo not shown) [Compound 13] |  | > 6.30 |  | > 9.00 | > 5.55 |
| CC(C)C(O)C1CN(c2nc(-c3n[nH]c4ncccc34)c(F)cc2Cl)CCN1 (stereo not shown) [Compound 21] |  | > 6.30 |  | > 7.30 | > 5.55 |
| CC(O)(C1CC1)C1CN(c2nc(-c3n[nH]c4ncccc34)c(F)cc2F)CCN1 (stereo not shown) [Compound 5] |  | > 7.30 |  |  | > 6.30 |
| CC(C)C(N)[C@H]1CCN(c2nc(-c3n[nH]c4ncccc34)c(C#N)cc2F)C1 (single isomer, unassigned) [Compound 36] |  | < 5.90 |  | > 6.30 | < 5.90 |
| CC(C)C(N)[C@H]1CCN(c2nc(-c3n[nH]c4ncccc34)c(F)cc2Cl)C1 (stereo partly shown) [Compound 23] |  | > 7.30 |  | > 9.00 | > 6.30 |
| OC(C1CC1)C1CN(c2nc(-c3n[nH]c4ncccc34)c(F)cc2F)CCN1 (stereo not shown) [Compound 29] |  | > 7.30 |  | > 9.00 | > 6.30 |
| CC(C)(O)[C@@](C)(O)[C@@H]1CN(c2nc(-c3n[nH]c4ncccc34)c(F)cc2F)CCN1 [Compound 41] |  | > 6.30 |  | > 9.00 | > 6.30 |
| CC[C@@H](O)[C@@H]1CN(c2nc(-c3n[nH]c4ncccc34)c(F)cc2F)CCN1 [Compound 8] |  | > 7.30 |  | > 9.00 | > 5.55 |
| CCC(O)C1CN(c2nc(-c3n[nH]c4ncccc34)c(F)cc2Cl)CCN1 (stereo not shown) [Compound 18] |  | > 6.30 |  | > 7.30 | < 5.90 |
| CC[C@H](O)[C@@H]1CN(c2nc(-c3n[nH]c4ncccc34)c(F)cc2F)CCN1 [Compound 25] |  | > 6.30 |  | > 7.30 | < 5.90 |
| CC(C)(O)[C@@](C)(O)[C@@H]1CN(c2nc(-c3n[nH]c4ncccc34)c(F)cc2Cl)CCN1 [Compound 42] |  | > 7.30 |  | > 9.00 | > 5.55 |
| CC(C)C(O)C1CN(c2nc(-c3n[nH]c4ncccc34)c(F)cc2Cl)CCN1 (stereo not shown) [Compound 20] |  | > 7.30 |  | > 9.00 | > 6.30 |
| COCC(C)(O)C1CN(c2nc(-c3n[nH]c4ncccc34)c(F)cc2F)CCN1 (stereo not shown) [Compound 17] |  |  |  |  | > 5.55 |
